For assay [1], the target named is human full-length recombinant HPK1 (Homo sapiens (Human), UniProt Q92918). Put plainly: HPK1 biochemical enzyme assay, microfluidic mobility shift assay (MSA). As to conditions: HPK1 mobility shift assay; read-out: HPK1 Enzyme Assay_Ki.
The subject of assay [2] is phospho-SLP-76 (Ser376) in Jurkat cells. Put plainly: Phospho-SLP-76 (Ser376) Homogeneous Time Resolved Fluorescence (HTRF) assay in Jurkat cells. Type of assay: cell-based. As to conditions: Homo sapiens, Phospho-SLP-76 (Ser376) HTRF, anti-CD3 stimulation, read-out: SLP76 Assay_IC50. In short, it runs like this: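 Jurkat cells pre-treated 30 min with compounds (10 μM to 0.1 nM, 11-point, 0.1% DMSO), then stimulated with 200 μg/mL F(ab)2-complexed anti-CD3 (UCHT1) for 15 min at 37 °C. Lysate phospho-SLP-76 detected by HTRF after overnight antibody incubation; IC50 from four-parameter fit.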
In general terms: In TR-FRET formats the signal depends on donor and acceptor labels being close together.

SMILES strings stand for the structures.

human full-length recombinant HPK1, sequence (Q92918 whole entry): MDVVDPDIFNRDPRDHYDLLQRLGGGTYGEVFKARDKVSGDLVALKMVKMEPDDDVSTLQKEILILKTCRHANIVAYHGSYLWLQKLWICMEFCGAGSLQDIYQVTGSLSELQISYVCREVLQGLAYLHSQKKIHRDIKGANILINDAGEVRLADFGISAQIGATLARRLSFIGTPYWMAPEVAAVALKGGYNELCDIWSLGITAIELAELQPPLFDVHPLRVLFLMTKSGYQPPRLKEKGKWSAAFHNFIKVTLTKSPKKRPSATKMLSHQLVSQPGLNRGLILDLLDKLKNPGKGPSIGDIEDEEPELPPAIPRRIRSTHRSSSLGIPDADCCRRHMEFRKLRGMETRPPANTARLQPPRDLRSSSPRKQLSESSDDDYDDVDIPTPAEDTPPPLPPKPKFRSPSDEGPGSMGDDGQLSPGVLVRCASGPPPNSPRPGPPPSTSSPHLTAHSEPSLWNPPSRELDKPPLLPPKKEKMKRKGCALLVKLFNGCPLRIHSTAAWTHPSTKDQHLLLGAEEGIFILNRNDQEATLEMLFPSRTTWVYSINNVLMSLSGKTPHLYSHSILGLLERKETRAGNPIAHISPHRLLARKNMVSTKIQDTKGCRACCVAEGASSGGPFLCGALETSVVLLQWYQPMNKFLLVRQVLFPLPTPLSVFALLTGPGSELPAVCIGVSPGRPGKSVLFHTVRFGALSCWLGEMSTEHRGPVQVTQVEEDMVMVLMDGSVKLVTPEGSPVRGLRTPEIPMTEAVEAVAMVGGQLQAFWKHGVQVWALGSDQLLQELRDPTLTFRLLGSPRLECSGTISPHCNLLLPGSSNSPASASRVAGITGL

With `CCC(CC)n1cnnc1-c1cccc(N2Cc3c(cc(N(CC)CC)nc3CN)C2=O)n1` [Example 122, 4-(aminomethyl)-6-(diethylamino)-2-{6-[4-(pentan-3-yl)-4H-1,2,4-triazol-3-yl]pyridin-2-yl}-2,3-dihydro-1H-pyrrolo[3,4-c]pyridin-1-one], in assay [1], the Ki was determined as 0.41 nM. In addition, the IC50 in assay [2] came out at 70 nM.
Turning to `CCN(c1cc2c(c(CN)n1)CN(c1cccc(N3C(=O)OC[C@@H]3CF)n1)C2=O)C(C)C` [Example 123, 4-(aminomethyl)-6-[ethyl(propan-2-yl)amino]-2-{6-[(4R)-4-(fluoromethyl)-2-oxo-1,3-oxazolidin-3-yl]pyridin-2-yl}-2,3-dihydro-1H-pyrrolo[3,4-c]pyridin-1-one], the Ki in assay [1] is 1.03 nM. Besides, the IC50 in assay [2] worked out at 273 nM.
Taken in the same sequence, the figures for `C[C@@H]1CC[C@@H](C)N1c1cc2c(c(CN)n1)CN(c1cccc(N3C(=O)OC[C@@H]3CF)n1)C2=O` [Example 124, 4-(aminomethyl)-6-[(2R,5R)-2,5-dimethylpyrrolidin-1-yl]-2-{6-[(4R)-4-(fluoromethyl)-2-oxo-1,3-oxazolidin-3-yl]pyridin-2-yl}-2,3-dihydro-1H-pyrrolo[3,4-c]pyridin-1-one] were 1.5 nM and 375 nM.
As to `C[C@@H]1CCCN1c1cc2c(c(CN)n1)CN(c1cccc(N3C(=O)OC[C@@H]3C)n1)C2=O` [Example 125, 4-(aminomethyl)-2-{6-[(4S)-4-methyl-2-oxo-1,3-oxazolidin-3-yl]pyridin-2-yl}-6-[(2R)-2-methylpyrrolidin-1-yl]-2,3-dihydro-1H-pyrrolo[3,4-c]pyridin-1-one], the Ki in assay [1] came out at 0.1 nM. Moreover, the IC50 in assay [2] is 50 nM.
As for `CCC(CC)n1cnnc1-c1cccc(N2Cc3c(cc(C4(C)CC4)nc3CN)C2=O)n1` [Example 126, 4-(aminomethyl)-6-(1-methylcyclopropyl)-2-{6-[4-(pentan-3-yl)-4H-1,2,4-triazol-3-yl]pyridin-2-yl}-2,3-dihydro-1H-pyrrolo[3,4-c]pyridin-1-one], the Ki in assay [1] stood at 0.8 nM. In addition, in assay [2], the IC50 was determined as 114 nM.
Taken in the same sequence, the figures for `CCn1c(C)nnc1-c1cccc(N2Cc3c(cc(C4(C)CC4)nc3CN)C2=O)n1` [Example 127, 4-(aminomethyl)-2-[6-(4-ethyl-5-methyl-4H-1,2,4-triazol-3-yl)pyridin-2-yl]-6-(1-methylcyclopropyl)-2,3-dihydro-1H-pyrrolo[3,4-c]pyridin-1-one] were 1.52 nM and 435 nM.
For the compound `CCCn1c(C)nnc1-c1cccc(N2Cc3c(cc(C4(C)CC4)nc3CN)C2=O)n1` [Example 128, 4-(aminomethyl)-6-(1-methylcyclopropyl)-2-[6-(5-methyl-4-propyl-4H-1,2,4-triazol-3-yl)pyridin-2-yl]-2,3-dihydro-1H-pyrrolo[3,4-c]pyridin-1-one], the Ki in assay [1] was determined as 0.63 nM. Besides, the IC50 in assay [2] is 874 nM.
Taken in the same sequence, the figures for `CCC(CC)n1cnnc1-c1cccc(N2Cc3c(cc(C4CC4)nc3CN)C2=O)n1` [Example 129, 4-(aminomethyl)-6-cyclopropyl-2-{6-[4-(pentan-3-yl)-4H-1,2,4-triazol-3-yl]pyridin-2-yl}-2,3-dihydro-1H-pyrrolo[3,4-c]pyridin-1-one] were 0.31 nM and 93 nM.
On to `CCCn1c(C)nnc1-c1cccc(N2Cc3c(cc(N(C)CC)nc3CNC)C2=O)n1` [Example 130, 6-[ethyl(methyl)amino]-4-[(methylamino)methyl]-2-[6-(5-methyl-4-propyl-4H-1,2,4-triazol-3-yl)pyridin-2-yl]-2,3-dihydro-1H-pyrrolo[3,4-c]pyridin-1-one], for which the Ki in assay [1] came out at 0.78 nM. Besides, the IC50 in assay [2] is 201 nM.
`CCN(C)c1cc2c(c(CNC)n1)CN(c1cccc(-c3nncn3CC)n1)C2=O` [Example 131, 6-[ethyl(methyl)amino]-2-[6-(4-ethyl-4H-1,2,4-triazol-3-yl)pyridin-2-yl]-4-[(methylamino)methyl]-2,3-dihydro-1H-pyrrolo[3,4-c]pyridin-1-one]: the Ki in assay [1] was determined as 0.11 nM. The IC50 in assay [2] worked out at 57 nM.
With `C[C@H]1CCCN1c1cc2c(c(CN)n1)CN(c1cccc(N3C(=O)OC[C@@H]3C)n1)C2=O` [Example 132, 4-(aminomethyl)-2-{6-[(4S)-4-methyl-2-oxo-1,3-oxazolidin-3-yl]pyridin-2-yl}-6-[(2S)-2-methylpyrrolidin-1-yl]-2,3-dihydro-1H-pyrrolo[3,4-c]pyridin-1-one], in assay [1], the Ki was found to be 0.2 nM. The IC50 in assay [2] turned out to be 67 nM.
Taken in the same sequence, the figures for `CCC(CC)n1c(C)nnc1-c1cccc(N2Cc3c(cc(N4CCC[C@@H]4C)nc3CNC)C2=O)n1` [Example 135, 4-[(methylamino)methyl]-2-{6-[5-methyl-4-(pentan-3-yl)-4H-1,2,4-triazol-3-yl]pyridin-2-yl}-6-[(2S)-2-methylpyrrolidin-1-yl]-2,3-dihydro-1H-pyrrolo[3,4-c]pyridin-1-one] were 0.8 nM and greater than 10000 nM.
As for `CCCn1cnnc1-c1cccc(N2Cc3c(cc(N4[C@H](C)CC[C@H]4C)nc3CN)C2=O)n1` [Example 136, 4-(aminomethyl)-6-[(2R,5R)-2,5-dimethylpyrrolidin-1-yl]-2-[6-(4-propyl-4H-1,2,4-triazol-3-yl)pyridin-2-yl]-2,3-dihydro-1H-pyrrolo[3,4-c]pyridin-1-one], the Ki in assay [1] worked out at 0.73 nM. Also, in assay [2], the IC50 turned out to be 106 nM.
Taken in the same sequence, the figures for `C[C@@H]1CC[C@@H](C)N1c1cc2c(c(CN)n1)CN(c1cccc(N3C(=O)OC[C@@H]3C)n1)C2=O` [Example 137, 4-(aminomethyl)-6-[(2R,5R)-2,5-dimethylpyrrolidin-1-yl]-2-{6-[(4S)-4-methyl-2-oxo-1,3-oxazolidin-3-yl]pyridin-2-yl}-2,3-dihydro-1H-pyrrolo[3,4-c]pyridin-1-one] were 0.28 nM and 76 nM.
Taken in the same sequence, the figures for `CCC(CC)n1cnnc1-c1cccc(N2Cc3c(cc(N4CCC[C@@H]4C)nc3CNC)C2=O)n1` [Example 138, 4-[(methylamino)methyl]-6-[(2S)-2-methylpyrrolidin-1-yl]-2-{6-[4-(pentan-3-yl)-4H-1,2,4-triazol-3-yl]pyridin-2-yl}-2,3-dihydro-1H-pyrrolo[3,4-c]pyridin-1-one] were 0.09 nM and greater than 10000 nM.
Taken in the same sequence, the figures for `CC[C@@H](C)n1cnnc1-c1cccc(N2Cc3c(cc(C4(C)CC4)nc3CNC)C2=O)n1` [Example 139, 2-(6-{4-[(2R)-butan-2-yl]-4H-1,2,4-triazol-3-yl}pyridin-2-yl)-4-[(methylamino)methyl]-6-(1-methylcyclopropyl)-2,3-dihydro-1H-pyrrolo[3,4-c]pyridin-1-one] were 0.46 nM and 266 nM.
In the case of `CCN(c1cc2c(c(CN)n1)CN(c1cccc(-c3nncs3)n1)C2=O)C(C)C` [Example 140, 4-(aminomethyl)-6-[ethyl(propan-2-yl)amino]-2-[6-(1,3,4-thiadiazol-2-yl)pyridin-2-yl]-2,3-dihydro-1H-pyrrolo[3,4-c]pyridin-1-one], the Ki in assay [1] is 2.07 nM. Further, the IC50 in assay [2] stood at 464 nM.
Take `CCN(c1cc2c(c(CN)n1)CN(c1cccc(-c3nncn3CC)n1)C2=O)C(C)C` [Example 141, 4-(aminomethyl)-6-[ethyl(propan-2-yl)amino]-2-[6-(4-ethyl-4H-1,2,4-triazol-3-yl)pyridin-2-yl]-2,3-dihydro-1H-pyrrolo[3,4-c]pyridin-1-one]: in assay [1], the Ki was 0.74 nM. Also, the IC50 in assay [2] was 122 nM.

The record behind these values is patent US11142525B2 (Pfizer Inc., priority 2018, dated 2021).
